From publication PMC9317397, “Design and Synthesis of Hepatitis B Virus (HBV) Capsid Assembly Modulators and Evaluation of Their Activity in Mammalian Cell Model” (Pharmaceuticals, 2022)
“Also recorded” adds a separate entry of the source. Where two headings read alike, the source gives them in different places.

What was measured:
[1] = biological target: HBV capsid assembly (full-length HBc protein, genotype D1) (Hepatitis B virus genotype D subtype ayw, UniProt P03146, A80I/T33N/V74G); experiment: HBV capsid assembly in SFV1/HBc-infected HBc-producing BHK-21 cells, native agarose gel anti-HBc immunoblot; format: cell-based; conditions: HBc-producing BHK-21 cells; for Type of effect on HBV capsid assembly in dose-dependent experiments: 0.1–50 µM, 24 h (Figure 6); for Effect on capsid production / mobility in initial test: 1–50 μM, 24 h (Figure 5); for Effect on Capsid Assembly / Effect on Capsid Assembly, Starting Concentration: 24 h, native agarose immunoblot
[2] = MTT viability assay in BHK-21 cells; format: cell-based, hamster; conditions: hamster, 200 µM, read-out: Cell viability, percentage from untreated cells
Description: BHK-21 cells were incubated with different concentrations (6.125, 12.25, 25, 50, 100, and 200 µM) of the respective compounds and the cell viability was calculated as a percentage from untreated cells (100%) (Figure 7). In general, the results confirmed the morphological observation of relatively low cytotoxicity for tested compounds at concentrations below 100 µM.
Additionally, cell viability was determined by tetrazolium salt-based assay using the Vybrant MTT Cell Proliferation kit (Thermo Fisher Scientific, Waltham, MA, USA) or more sensitive CCK-8 kit (Abcam). First, the cell numbers and protocol were optimized for BHK-21 and HepG2.2.15 cells, as indicated in the MTT assay kit or CCK-8 reagent manufacturer’s protocol, and standard curves with OD values were created and evaluated.
In order to evaluate the toxicity of selected HAP compounds in the medium, 1.3 × 10^4 BHK-21 were seeded per well in 96-well plates and treated with the studied compounds for 24 h at concentrations 6.125; 12.25; 25; 50; 100; and 200 μM. Control cells without HAP compounds and MTT-free cell media were included in the experiments. The MTT test was performed according to the full protocol version (Thermo Fisher Scientific).

HBV = conditions: HepG2.2.15 cells, six days, secreted virion DNA
BHK-21 cells = experiment: Cytopathic effect (cell morphology, proliferation, trypan blue) in non-infected BHK-21 cells; format: cell-based, hamster; conditions: 24 h
Description: To define HAP compound non-toxic concentrations for initial studies, non-infected BHK-21 cells were incubated with compounds at four different concentrations for 24 h (25 μM, 50 μM, 100 μM, and 200 μM), and the cytopathic effects were evaluated by analysis of cell morphology and proliferation changes. […] 1c, 1j, 1k and 4a, and 7b. The reference comp.
The cytopathic effect of the compounds was estimated by phase contrast microscopy and standard trypan blue staining, and the cells were counted using an automatic cell counter (Invitrogen). BHK-21 and HepG2.2.15 cells were incubated for 24 h with the studied compounds at […] (25, 50, 100, 150 and 200 μM) and the cell morphology was controlled under microscope to evaluate cytopathic effects (Table 1, the highest non-toxic concentration).

[3] = non-infected BHK-21 cells, no noticeable cytopathic effect

Chain of HBV capsid assembly (full-length HBc protein, genotype D1) (P03146 whole entry A80I/T33N/V74G, looked up): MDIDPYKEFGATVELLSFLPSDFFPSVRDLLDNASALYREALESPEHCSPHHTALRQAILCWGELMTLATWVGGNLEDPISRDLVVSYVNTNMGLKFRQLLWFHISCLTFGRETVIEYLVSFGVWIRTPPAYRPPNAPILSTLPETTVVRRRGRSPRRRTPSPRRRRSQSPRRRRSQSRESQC

SMILES	melting point	Effect on capsid production / mobility in initial test [1]	Effect on Capsid Assembly [1]	other results
CCOC(=O)C1=C(C)NC(c2ncc(F)cc2F)=NC1c1ccc(F)cc1 (stereo not drawn) (hydrate or solvate) [1c]	126 to 127 °C			
CCOCCOC(=O)C1=C(C)NC(c2ncc(F)cc2F)=NC1c1ccc(F)cc1Cl (stereo not drawn) (hydrate or solvate) [1d]	143 to 144 °C			
CC1=C(C(=O)OCCOC(C)C)C(c2ccc(F)cc2Cl)N=C(c2ncc(F)cc2F)N1 (stereo not drawn) (hydrate or solvate) [1e]	156 to 157 °C			
CCCOCCOC(=O)C1=C(C)NC(c2ncc(F)cc2F)=NC1c1ccc(F)cc1Cl (stereo not drawn) (hydrate or solvate) [1f]	149 to 150 °C			
CCCOCCOC(=O)C1=C(C)NC(c2ncc(F)cc2F)=NC1c1ccccc1OC(F)F (stereo not drawn) (hydrate or solvate) [1g]	164 to 165 °C			
CC1=C(C(=O)Nc2ccccn2)C(c2ccc(F)cc2Cl)N=C(c2ncc(F)cc2F)N1 (stereo not drawn) (hydrate or solvate) [1h]	152 to 153 °C			
COc1ccccc1NC(=O)C1=C(C)NC(c2ncc(F)cc2F)=NC1c1ccc(F)cc1Cl (stereo not drawn) (hydrate or solvate) [1i]	149 to 150 °C			
CCOC(=O)C1=C(C)NC(c2nccs2)=NC1c1ccc(F)cc1 (stereo not drawn) (hydrate or solvate) [1j]	114 to 115 °C			
CCOC(=O)C1=C(C)NC(c2nccs2)=NC1c1ccccc1 (stereo not drawn) (hydrate or solvate) [1k]	129 to 130 °C			
CC1=C(C(=O)O)C(c2ccc(F)cc2Cl)N=C(c2ncc(F)cc2F)N1 (stereo not drawn) [1b]		inhibitory effect	Dose dependent capsid signal decrease	Type of effect on HBV capsid assembly in dose-dependent experiments [1]: dose-dependent HBc signal decrease; Effect on Capsid Assembly, Starting Concentration [1]: 10 µM; viability at 24 h, 200 µM [2]: > 90%; HBV DNA, % from control (HBV; 10 µM): 74.3%; The Highest Non-Toxic Concentration (BHK-21 cells; [3]): 50 µM
CCOC(=O)C1=C(C)NC(c2ncc(F)cc2F)=NC1c1ccc(F)cc1 (stereo not drawn) [1c]		inhibitory effect	Capsid signal decrease	Effect on Capsid Assembly, Starting Concentration [1]: 5 µM
CCCOCCOC(=O)C1=C(C)NC(c2ncc(F)cc2F)=NC1c1ccc(F)cc1Cl (stereo not drawn) [1f]		misfolding of the HBV capsid	HBc accumulation, aggregates/or incorrect capsid structures	Type of effect on HBV capsid assembly in dose-dependent experiments [1]: dose-dependent HBc products accumulation; Effect on Capsid Assembly, Starting Concentration [1]: 10 µM; viability at 24 h, 200 µM [2]: > 90%; HBV DNA, % from control (HBV; 20 µM): 52.5%; The Highest Non-Toxic Concentration (BHK-21 cells; [3]): 100 µM
CCCOCCOC(=O)C1=C(C)NC(c2ncc(F)cc2F)=NC1c1ccccc1OC(F)F (stereo not drawn) [1g]		did not induce a significant effect on the capsid mobility; also recorded: some increase in capsid band signal	Insignificant capsid amount increases	The Highest Non-Toxic Concentration (BHK-21 cells; [3]): 50 µM
CC1=C(C(=O)Nc2ccccn2)C(c2ccc(F)cc2Cl)N=C(c2ncc(F)cc2F)N1 (stereo not drawn) [1h]			Dose dependent capsid signal decrease	Type of effect on HBV capsid assembly in dose-dependent experiments [1]: dose-dependent HBc signal decrease; Effect on Capsid Assembly, Starting Concentration [1]: 20 µM; viability at 24 h, 200 µM [2]: > 90%; The Highest Non-Toxic Concentration (BHK-21 cells; [3]): 150 µM
COc1ccccc1NC(=O)C1=C(C)NC(c2ncc(F)cc2F)=NC1c1ccc(F)cc1Cl (stereo not drawn) [1i]			Dose dependent capsid signal decrease	Type of effect on HBV capsid assembly in dose-dependent experiments [1]: dose-dependent HBc signal decrease; Effect on Capsid Assembly, Starting Concentration [1]: 20 µM; viability at 24 h, 200 µM [2]: 71%; The Highest Non-Toxic Concentration (BHK-21 cells; [3]): 50 µM
CCOC(=O)C1=C(C)NC(c2nccs2)=NC1c1ccc(F)cc1 (stereo not drawn) [1j]		misfolding of the HBV capsid	HBc accumulation, aggregates/or incorrect capsid structures	Type of effect on HBV capsid assembly in dose-dependent experiments [1]: dose-dependent HBc products accumulation; Effect on Capsid Assembly, Starting Concentration [1]: 5 µM
CCOC(=O)C1=C(C)NC(c2nccs2)=NC1c1ccccc1 (stereo not drawn) [1k]		misfolding of the HBV capsid	Dose dependent HBc accumulation, aggregates/or incorrect capsid structures	Effect on Capsid Assembly, Starting Concentration [1]: 1 µM
COC(=O)C1=C(C[n+]2ccccc2)NC(c2ncc(F)cc2F)=NC1c1ccc(F)cc1Cl (stereo not drawn) [3a]	173 to 174 °C	did not induce a significant effect on the capsid mobility	No effect	
COC(=O)C1=C(C[N+]2(C)CCCC2)NC(c2ncc(F)cc2F)=NC1c1ccc(F)cc1Cl (stereo not drawn) [3b]	167 to 168 °C	did not induce a significant effect on the capsid mobility	No effect	
COC(=O)C1=C(C[N+]2(C)CCOCC2)NC(c2ncc(F)cc2F)=NC1c1ccc(F)cc1Cl (stereo not drawn) [3c]	181 to 182 °C	did not induce a significant effect on the capsid mobility	No effect	The Highest Non-Toxic Concentration (BHK-21 cells; [3]): 150 µM
COC(=O)C1=C(C[N+]23CCC(CC2)C(O)C3)NC(c2ncc(F)cc2F)=NC1c1ccc(F)cc1Cl (stereo not drawn) [3d]		inhibitory effect	Capsid signal decrease, possible changes in NS packaging	The Highest Non-Toxic Concentration (BHK-21 cells; hamster): 100 µM
CCOC(=O)c1c(C)nc(-c2nccs2)nc1-c1ccccc1 [4a]	93 to 94 °C	did not induce a significant effect on the capsid mobility	No effect	
CCOC(=O)c1c(C)nc(-c2nccs2)nc1-c1ccc(F)cc1 [4b]		did not induce a significant effect on the capsid mobility	No effect	
CCCCCC[n+]1ccc(C)cc1.Cc1ccc(S(=O)(=O)[O-])cc1 [7a]		did not induce a significant effect on the capsid mobility	No effect	The Highest Non-Toxic Concentration (BHK-21 cells; [3]): 50 µM
CCCCCCCCCCCCCCCC[n+]1ccc(C)cc1.Cc1ccc(S(=O)(=O)[O-])cc1 [7b]		did not induce a significant effect on the capsid mobility	No effect	
O=C1OCC2=C1C(c1ccc(F)cc1Cl)N=C(c1ncc(F)cc1F)N2 (stereo not drawn) [compound 5]		misfolding of the HBV capsid	HBc accumulation, aggregates/or incorrect capsid structures	Type of effect on HBV capsid assembly in dose-dependent experiments [1]: dose-dependent HBc products accumulation; Effect on Capsid Assembly, Starting Concentration [1]: 50 µM
CCOC(=O)C1=C(C)NC(c2nccs2)=CC1c1ccc(F)cc1Cl (stereo not drawn) [compound 6]		did not induce a significant effect on the capsid mobility	No effect	
